Molecules are shown by their SMILES.

A word on the melting point: it is the temperature of the solid-liquid transition. Turning to `CC1SC(=O)NN=C1c1ccc2c(c1)CCCN2` (stereo not drawn) [Example 2], the melting point lay in the range of 176 to 178 °C.
As for `CCNC(=O)N1CCCc2cc(C3=NNC(=O)SC3C)ccc21` (stereo not drawn) [Example 3], the melting point was 122 to 124 °C (dec.).
With `CCCNC(=O)N1CCCc2cc(C3=NNC(=O)SC3C)ccc21` (stereo not drawn) [Example 4] the figure was 151 to 153 °C.
`CCCCNC(=O)N1CCCc2cc(C3=NNC(=O)SC3C)ccc21` (stereo not drawn) [Example 5]: the melting point lay within 133 to 134 °C.
For the molecule `CC1SC(=O)NN=C1c1ccc2c(c1)CCCN2C(=O)Nc1ccccc1` (stereo not drawn) [Example 6], the melting point is 213 to 214 °C (dec.).
For `CC1SC(=O)NN=C1c1ccc2c(c1)CCCN2C(=O)Nc1ccc(Cl)cc1` (stereo not drawn) [Example 7], the melting point was 218 to 220 °C (dec.).
Turning to `CC1SC(=O)NN=C1c1ccc2c(c1)CCCN2C(=O)Nc1cccc2ccccc12` (stereo not drawn) [Example 8], the melting point is 165 to 166 °C (dec.).
In the case of `Cc1ccccc1NC(=O)N1CCCc2cc(C3=NNC(=O)SC3C)ccc21` (stereo not drawn) [Example 9], the melting point was 153 to 154 °C.
The same measure for `CC1SC(=O)NN=C1c1ccc2c(c1)CCCN2C(=O)NCc1ccc(F)cc1` (stereo not drawn) [Example 10]: 158 to 160 °C.
Take `CC1SC(=O)NN=C1c1ccc2c(c1)CCCN2C(=O)c1ccco1` (stereo not drawn) [Example 11]: the melting point was in the range of 159 to 161 °C.
`CC1SC(=O)NN=C1c1ccc2c(c1)CCCN2C(=O)c1ccccc1` (stereo not drawn) [Example 13] showed a melting point of 202 to 204 °C.
In turn, `CC1SC(=O)NN=C1c1ccc2c(c1)CCCN2C(=O)Cc1c(Cl)cccc1Cl` (stereo not drawn) [Example 14] came in with a melting point of 188 to 189 °C.
The same measure for `CC1SC(=O)NN=C1c1ccc2c(c1)CCCN2C(=O)C1CCCCC1` (stereo not drawn) [Example 16]: 148 to 150 °C (dec.); for `CC1SC(=O)NN=C1c1ccc2c(c1)CCCN2C(=O)CCc1ccccc1` (stereo not drawn) [Example 17]: 172 to 174 °C; for `CC1SC(=O)NN=C1c1ccc2c(c1)CCCN2C(=O)c1cccs1` (stereo not drawn) [Example 18]: 190 to 191 °C.

The values above are taken from patent US6699857B1, “Tetrahydroquinolinyl 6-methyldihydrothiadiazinone derivatives and use thereof” (Bayer Aktiengesellschaft, priority 1999, dated 2004).
